Read-outs that look alike come from different tables or passages of the source.

The results in this text go back to patent publication US10660877B2 (BRISTOL-MYERS SQUIBB COMPANY, priority 2016, dated 2020).

One experiment has as its target human TLR8 (Homo sapiens (Human), UniProt Q9NR97). As to the kind of experiment: TLR8 inhibition reporter assay (HEK-Blue cells, SEAP reporter, R848 stimulation).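 Also: compounds tested from 0.05 nM to 50 µM, 22 h at 37 °C, SEAP measured with HEK-Blue Detection, inhibition relative to agonist plus DMSO versus a known inhibitor.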 On the technique in general: In a reporter assay the amount or activity of a reporter protein is the signal.
Another experiment addresses human TLR9 (Homo sapiens (Human), UniProt Q9NR96). As to the kind of experiment: TLR9 inhibition reporter assay (HEK-Blue cells, SEAP reporter, ODN2006 stimulation).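 Also: compounds tested over 0.05 nM to 50 µM, 22 h incubation, inhibition taken as SEAP signal drop from agonist plus DMSO wells toward a known inhibitor control.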
The target of the next experiment is human TLR7 (Homo sapiens (Human), UniProt Q9NYK1). The experiment can be described thus: TLR7 inhibition reporter assay (HEK-Blue cells, SEAP reporter, gardiquimod stimulation). The format is cell-based.
human TLR7, sequence (Q9NYK1 27-1049): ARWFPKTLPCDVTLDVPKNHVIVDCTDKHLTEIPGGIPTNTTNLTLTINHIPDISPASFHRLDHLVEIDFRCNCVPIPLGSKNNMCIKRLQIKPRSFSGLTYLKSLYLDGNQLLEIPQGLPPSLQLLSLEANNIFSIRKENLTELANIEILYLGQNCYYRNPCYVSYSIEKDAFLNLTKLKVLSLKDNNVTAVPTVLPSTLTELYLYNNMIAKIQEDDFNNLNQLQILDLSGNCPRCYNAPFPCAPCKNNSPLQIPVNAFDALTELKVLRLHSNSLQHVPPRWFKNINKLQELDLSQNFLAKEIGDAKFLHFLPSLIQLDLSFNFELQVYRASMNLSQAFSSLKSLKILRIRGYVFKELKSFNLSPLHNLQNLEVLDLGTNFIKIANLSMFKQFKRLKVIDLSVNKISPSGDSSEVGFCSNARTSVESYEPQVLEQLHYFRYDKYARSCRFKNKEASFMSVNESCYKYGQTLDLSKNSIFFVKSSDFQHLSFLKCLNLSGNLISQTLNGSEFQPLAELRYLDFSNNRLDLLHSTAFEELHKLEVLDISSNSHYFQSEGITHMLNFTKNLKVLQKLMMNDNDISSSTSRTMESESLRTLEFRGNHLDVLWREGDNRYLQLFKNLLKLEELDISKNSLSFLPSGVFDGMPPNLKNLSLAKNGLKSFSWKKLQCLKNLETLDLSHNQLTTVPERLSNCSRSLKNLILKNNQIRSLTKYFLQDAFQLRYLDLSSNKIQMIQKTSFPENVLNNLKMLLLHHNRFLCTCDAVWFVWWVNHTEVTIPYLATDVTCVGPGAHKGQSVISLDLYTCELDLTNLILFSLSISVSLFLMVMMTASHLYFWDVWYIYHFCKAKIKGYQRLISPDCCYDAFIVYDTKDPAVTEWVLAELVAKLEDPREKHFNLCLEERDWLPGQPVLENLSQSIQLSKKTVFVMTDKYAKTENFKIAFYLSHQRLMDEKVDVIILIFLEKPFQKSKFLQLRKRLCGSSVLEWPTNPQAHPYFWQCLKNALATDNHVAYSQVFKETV
The mark [1] stands for this setting: read-out: TLR8 IC50, HEK-Blue cells overexpressing human TLR8, R848 15.9 μM.
Where [2] appears, read: read-out: TLR9 IC50, HEK-Blue cells overexpressing human TLR9, ODN2006 5 nM.
Setting [3] is: HEK-Blue cells overexpressing human TLR7, gardiquimod 7.5 μM.
The mark [4] stands for this setting: TLR8 IC50, HEK-Blue cells overexpressing human TLR8, R848 15.9 μM.
The mark [5] stands for this setting: TLR9 IC50, HEK-Blue cells overexpressing human TLR9, ODN2006 5 nM.
The mark [6] stands for this setting: read-out: TLR8 IC50, HEK-Blue cells, R848 15.9 μM.
The mark [7] stands for this setting: read-out: TLR9 IC50, HEK-Blue cells, ODN2006 5 nM.
[8] abbreviates: HEK-Blue cells, gardiquimod 7.5 μM.

human TLR9, sequence (Q9NR96 26-1032): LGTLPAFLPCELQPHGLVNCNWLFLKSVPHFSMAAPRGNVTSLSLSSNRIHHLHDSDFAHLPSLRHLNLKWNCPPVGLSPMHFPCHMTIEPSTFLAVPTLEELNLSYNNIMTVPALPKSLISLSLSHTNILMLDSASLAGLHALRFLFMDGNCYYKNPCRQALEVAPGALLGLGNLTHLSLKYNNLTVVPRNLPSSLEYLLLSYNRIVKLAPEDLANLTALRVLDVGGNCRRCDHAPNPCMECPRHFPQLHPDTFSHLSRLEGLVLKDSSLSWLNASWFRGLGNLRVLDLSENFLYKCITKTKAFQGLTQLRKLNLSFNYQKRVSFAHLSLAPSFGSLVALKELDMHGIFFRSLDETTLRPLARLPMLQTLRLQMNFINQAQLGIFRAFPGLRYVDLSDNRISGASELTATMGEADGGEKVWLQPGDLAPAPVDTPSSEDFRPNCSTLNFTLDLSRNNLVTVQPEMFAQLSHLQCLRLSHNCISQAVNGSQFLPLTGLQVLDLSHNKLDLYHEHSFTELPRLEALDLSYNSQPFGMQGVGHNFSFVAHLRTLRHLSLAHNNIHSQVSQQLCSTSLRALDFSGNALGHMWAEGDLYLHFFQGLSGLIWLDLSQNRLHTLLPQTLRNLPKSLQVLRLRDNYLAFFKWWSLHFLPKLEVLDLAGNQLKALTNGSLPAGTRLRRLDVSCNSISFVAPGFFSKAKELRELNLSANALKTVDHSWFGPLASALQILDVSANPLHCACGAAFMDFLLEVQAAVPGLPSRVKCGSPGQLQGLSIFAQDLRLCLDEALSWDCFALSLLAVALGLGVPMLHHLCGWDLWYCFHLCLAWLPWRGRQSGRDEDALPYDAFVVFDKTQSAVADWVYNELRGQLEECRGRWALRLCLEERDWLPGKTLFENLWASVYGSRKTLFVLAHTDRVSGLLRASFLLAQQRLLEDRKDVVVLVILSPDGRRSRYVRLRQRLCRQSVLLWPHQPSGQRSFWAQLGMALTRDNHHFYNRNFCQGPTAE
human TLR8, sequence (Q9NR97 27-1041): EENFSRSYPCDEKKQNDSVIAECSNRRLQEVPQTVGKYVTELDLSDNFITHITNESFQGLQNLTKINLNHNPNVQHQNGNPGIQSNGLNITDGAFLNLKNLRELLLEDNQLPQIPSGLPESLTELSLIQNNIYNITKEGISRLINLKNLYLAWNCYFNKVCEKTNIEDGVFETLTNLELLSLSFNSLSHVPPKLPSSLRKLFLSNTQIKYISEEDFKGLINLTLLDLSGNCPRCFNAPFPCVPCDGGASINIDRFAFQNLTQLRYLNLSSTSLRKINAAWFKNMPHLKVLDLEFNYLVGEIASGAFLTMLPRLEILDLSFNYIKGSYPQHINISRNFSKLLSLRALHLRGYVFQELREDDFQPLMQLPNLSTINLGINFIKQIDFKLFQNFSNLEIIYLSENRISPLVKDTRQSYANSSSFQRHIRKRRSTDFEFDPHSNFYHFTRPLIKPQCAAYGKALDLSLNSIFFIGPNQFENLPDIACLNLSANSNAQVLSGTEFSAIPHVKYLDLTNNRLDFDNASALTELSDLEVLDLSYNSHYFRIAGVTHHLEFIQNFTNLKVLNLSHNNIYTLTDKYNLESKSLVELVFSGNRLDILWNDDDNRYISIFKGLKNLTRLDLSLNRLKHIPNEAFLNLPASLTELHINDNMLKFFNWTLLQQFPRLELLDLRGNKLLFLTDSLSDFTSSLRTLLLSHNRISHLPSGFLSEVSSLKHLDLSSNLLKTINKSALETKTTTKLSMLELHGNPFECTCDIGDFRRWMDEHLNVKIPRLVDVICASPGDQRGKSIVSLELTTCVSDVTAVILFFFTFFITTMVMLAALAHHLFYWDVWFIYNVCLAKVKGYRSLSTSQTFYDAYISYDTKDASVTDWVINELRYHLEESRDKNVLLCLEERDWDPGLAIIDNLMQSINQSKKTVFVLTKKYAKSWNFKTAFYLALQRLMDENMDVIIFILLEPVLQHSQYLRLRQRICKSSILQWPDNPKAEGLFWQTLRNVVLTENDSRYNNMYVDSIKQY

Broadly, the IC50 is the concentration that gives 50% inhibition. In the case of `Cc1cc(-c2[nH]c3ccc(C4CCN(C(=O)CCn5ccnc5C)CC4)cc3c2C(C)C)cc(C)n1` [Example 124, 1-(4-(2-(2,6-dimethylpyridin-4-yl)-3-isopropyl-1H-indol-5-yl)piperidin-1-yl)-3-(2-methyl-1H-imidazol-1-yl)propan-1-one], the IC50 worked out at 10.1 nM on human TLR8 (setting [1]), 394 nM on human TLR9 (setting [2]) and 1.9 nM against human TLR7 (setting [3]).

As to `Cc1cc(-c2[nH]c3ccc(C4CCN(CC5CCN(C(C)C)CC5)CC4)cc3c2C(C)C)ccn1` [Example 742, 3-isopropyl-5-(1-((1-isopropylpiperidin-4-yl)methyl)piperidin-4-yl)-2-(2-methylpyridin-4-yl)-1H-indole], the IC50 at human TLR8 (setting [1]) came out at 5.5 nM; on human TLR9 (setting [2]) it was 101 nM; on human TLR7 (setting [3]) it was 9.2 nM.

In the case of `Cc1cc(-c2[nH]c3ccc(C4CCN(CC(=O)N5CC(O)C5)CC4)cc3c2C(C)C)cc(C)n1` [Example 229, 2-(4-(2-(2,6-dimethylpyridin-4-yl)-3-isopropyl-1H-indol-5-yl)piperidin-1-yl)-1-(3-hydroxyazetidin-1-yl)ethan-1-one], the IC50 worked out at 7.1 nM at human TLR8 (setting [4]), 165 nM at human TLR9 (setting [5]) and 6.4 nM at human TLR7 (setting [3]).

As for `CNC(=O)CN1CCC(c2ccc3[nH]c(-c4cc(C5CC5)ncc4F)c(C(C)C)c3c2)CC1` [Example 514, 2-(4-(2-(2-cyclopropyl-5-fluoropyridin-4-yl)-3-isopropyl-1H-indol-5-yl)piperidin-1-yl)-N-methylacetamide], the 50% inhibitory concentration (IC50) is 269 nM at human TLR8 (setting [1]), 10900 nM at human TLR9 (setting [2]) and 60.3 nM against human TLR7 (setting [3]).

On to `Cc1c(-c2ccncc2)[nH]c2ccc(C3CCN(C4CCN(C(C)C)CC4)CC3)cc12` [Example 843, 5-(1′-isopropyl-[1,4′-bipiperidin]-4-yl)-3-methyl-2-(pyridin-4-yl)-1H-indole], for which the IC50 amounted to 28.4 nM at human TLR8 (setting [6]), 38 nM on human TLR9 (setting [7]) and 292 nM against human TLR7 (setting [8]).

`COCCN1CCN(CC(=O)N2CCC(c3ccc4[nH]c(-c5cc(C)nc(C)c5)c(C(C)C)c4c3)CC2)CC1` [Example 372, 1-(4-(2-(2,6-dimethylpyridin-4-yl)-3-isopropyl-1H-indol-5-yl)piperidin-1-yl)-2-(4-(2-methoxyethyl)piperazin-1-yl)ethan-1-one]: the half-maximal inhibitory concentration (IC50) turned out to be 14.1 nM at human TLR8 (setting [4]), 602 nM against human TLR9 (setting [5]) and 1.9 nM on human TLR7 (setting [3]).

For `Cc1cc(-c2[nH]c3ccc(C4CCN(C(=O)c5cccnc5)CC4)cc3c2C(C)C)cc(C)n1` [Example 112, (4-(2-(2,6-dimethylpyridin-4-yl)-3-isopropyl-1H-indol-5-yl)piperidin-1-yl)(pyridin-3-yl)methanone], the 50% inhibitory concentration (IC50) is 99.9 nM on human TLR8 (setting [1]), 15800 nM at human TLR9 (setting [2]) and 6.2 nM on human TLR7 (setting [3]).

`CNC(=O)CN1CCC(c2ccc3[nH]c(-c4cc(C)nc(F)c4)c(C(C)C)c3c2)CC1` [Example 498, 2-(4-(2-(2-fluoro-6-methylpyridin-4-yl)-3-isopropyl-1H-indol-5-yl)piperidin-1-yl)-N-methylacetamide]: the IC50 on human TLR8 (setting [1]) was 1240 nM; at human TLR9 (setting [2]) it was 6940 nM; against human TLR7 (setting [3]) it was 834 nM.

`Cc1cc(-c2[nH]c3ccc(C4CCN(C(=O)CNCC(C)O)CC4)cc3c2C(C)C)cc(C)n1` (stereo not drawn) [Example 367, 1-(4-(2-(2,6-dimethylpyridin-4-yl)-3-isopropyl-1H-indol-5-yl)piperidin-1-yl)-2-((2-hydroxypropyl)amino)ethan-1-one]: the IC50 at human TLR8 (setting [4]) was found to be 54.1 nM; against human TLR9 (setting [5]) it was 1890 nM; against human TLR7 (setting [3]), 6.5 nM.

For the compound `Cc1cc(-c2[nH]c3ccc(C4CCN(C(=O)C(C)(C)C)CC4)cc3c2C(C)C)ccn1` [Example 601, 1-(4-(3-isopropyl-2-(2-methylpyridin-4-yl)-1H-indol-5-yl)piperidin-1-yl)-2,2-dimethylpropan-1-one], the IC50 is 385 nM on human TLR8 (setting [1]), 34100 nM at human TLR9 (setting [2]) and 99.2 nM at human TLR7 (setting [3]).

Turning to `CCc1cc(-c2[nH]c3ccc(C4CCNCC4)cc3c2C(C)C)c(F)cn1` [Example 482, 2-(2-ethyl-5-fluoropyridin-4-yl)-3-isopropyl-5-(piperidin-4-yl)-1H-indole], the figures for the IC50 on human TLR8 (setting [1]), on human TLR9 (setting [2]) and against human TLR7 (setting [3]) were 19.2 nM, 3690 nM and 10.6 nM, respectively.

Turning to `Cc1cc(-c2[nH]c3ccc(C4CCN(CC5CCC5)CC4)cc3c2C(C)C)cc(C)n1` [Example 467, 5-(1-(cyclobutylmethyl)piperidin-4-yl)-2-(2,6-dimethylpyridin-4-yl)-3-isopropyl-1H-indole], the figures for the IC50 on human TLR8 (setting [1]), at human TLR9 (setting [2]) and against human TLR7 (setting [3]) were 5.8 nM, 155 nM and 2.5 nM, respectively.

Turning to `COc1ccc(CN2CCC(c3ccc4[nH]c(-c5cc(C)nc(C)c5)c(C(C)C)c4c3)CC2)cn1` [Example 424, 2-(2,6-dimethylpyridin-4-yl)-3-isopropyl-5-(1-((6-methoxypyridin-3-yl)methyl)piperidin-4-yl)-1H-indole], the IC50 turned out to be 7.2 nM on human TLR8 (setting [1]), 255 nM at human TLR9 (setting [2]) and 8.3 nM against human TLR7 (setting [3]).

On to `Cc1cc(-c2[nH]c3ccc(C4CCNCC4)cc3c2C2CC2)cc(C)n1` [Example 93, 3-cyclopropyl-2-(2,6-dimethylpyridin-4-yl)-5-(piperidin-4-yl)-1H-indole], for which the IC50 worked out at 9.2 nM on human TLR8 (setting [1]), 122 nM on human TLR9 (setting [2]) and 3.3 nM against human TLR7 (setting [3]).

Take `CC(C)c1c(-c2cc(C3CC3)ncc2F)[nH]c2ccc(C3CCN(C(=O)CN(C)C)CC3)cc12` [Example 516, 1-(4-(2-(2-cyclopropyl-5-fluoropyridin-4-yl)-3-isopropyl-1H-indol-5-yl)piperidin-1-yl)-2-(dimethylamino)ethan-1-one]: the IC50 on human TLR8 (setting [1]) stood at 190 nM; at human TLR9 (setting [2]), 1460 nM; at human TLR7 (setting [3]) it was 12.1 nM.

Take `CCc1c(-c2ccnc(OC)c2)[nH]c2ccc(C3CCN(CCNC)CC3)cc12` [Example 778, 2-(4-(3-ethyl-2-(2-methoxypyridin-4-yl)-1H-indol-5-yl)piperidin-1-yl)-N-methylethan-1-amine]: the values for the IC50 at human TLR8 (setting [1]), at human TLR9 (setting [2]) and against human TLR7 (setting [3]) were 100 nM, 1940 nM and 330 nM, respectively.

For the compound `CCc1c(-c2ccnc(C)c2)[nH]c2ccc(C3CCN(CCCN(C)C)CC3)cc12` [Example 673, 3-(4-(3-ethyl-2-(2-methylpyridin-4-yl)-1H-indol-5-yl)piperidin-1-yl)-N,N-dimethylpropan-1-amine], the IC50 on human TLR8 (setting [1]) came to 23.1 nM; at human TLR9 (setting [2]), 287 nM; against human TLR7 (setting [3]), 70.5 nM.

Turning to `Cc1cc(-c2[nH]c3ccc(C4CCN(CC(=O)NC5CCOC5)CC4)cc3c2C(C)C)cc(C)n1` (stereo not drawn) [Example 282, 2-(4-(2-(2,6-dimethylpyridin-4-yl)-3-isopropyl-1H-indol-5-yl)piperidin-1-yl)-N-(tetrahydrofuran-3-yl)acetamide], the half-maximal inhibitory concentration (IC50) came to 9 nM at human TLR8 (setting [1]), 2700 nM on human TLR9 (setting [2]) and 3.7 nM against human TLR7 (setting [3]).

`COC[C@H](O)CN1CCC(c2ccc3[nH]c(-c4cc(C)nc(C)c4)c(C(C)C)c3c2)CC1` [Example 852, (R)-1-(4-(2-(2,6-dimethylpyridin-4-yl)-3-isopropyl-1H-indol-5-yl)piperidin-1-yl)-3-methoxypropan-2-ol]: the results for the IC50 on human TLR8 (setting [6]), at human TLR9 (setting [7]) and against human TLR7 (setting [8]) were 3.8 nM, 631 nM and 4.1 nM, respectively.

Turning to `Cc1cc(-c2[nH]c3ccc(C4CCN(C(=O)C5CCN(Cc6ccccc6)CC5)CC4)cc3c2C(C)C)ccn1` [Example 567, (1-benzylpiperidin-4-yl)(4-(3-isopropyl-2-(2-methylpyridin-4-yl)-1H-indol-5-yl)piperidin-1-yl)methanone], the IC50 came to 22.9 nM on human TLR8 (setting [1]), 876 nM on human TLR9 (setting [2]) and 26.7 nM against human TLR7 (setting [3]).

Take `Cc1cc(-c2[nH]c3cc(F)c(C4CCN(C5CC(C)OC(C)C5)CC4)cc3c2C(C)C)cc(C)n1` (stereo not drawn) [Example 833, 2-(2,6-dimethylpyridin-4-yl)-5-(1-(2,6-dimethyltetrahydro-2H-pyran-4-yl)piperidin-4-yl)-6-fluoro-3-isopropyl-1H-indole]: the values for the IC50 on human TLR8 (setting [6]), on human TLR9 (setting [7]) and against human TLR7 (setting [8]) were 29.6 nM, 556 nM and 9.4 nM, respectively.

Consider `CNC(=O)C(=O)N1CCC(c2ccc3[nH]c(-c4cc(C)nc(C)c4)c(C(C)C)c3c2)CC1` [Example 205, 2-(4-(2-(2,6-dimethylpyridin-4-yl)-3-isopropyl-1H-indol-5-yl)piperidin-1-yl)-N-methyl-2-oxoacetamide], for which the IC50 turned out to be 76.3 nM on human TLR8 (setting [1]), 19200 nM on human TLR9 (setting [2]) and 4.4 nM against human TLR7 (setting [3]).

`Cc1cc(-c2[nH]c3ccc(C4CCN(C(=O)c5cn(C)nc5C)CC4)cc3c2C(C)C)cc(C)n1` [Example 141, (1,3-dimethyl-1H-pyrazol-4-yl)(4-(2-(2,6-dimethylpyridin-4-yl)-3-isopropyl-1H-indol-5-yl)piperidin-1-yl)methanone]: the results for the IC50 at human TLR8 (setting [1]), at human TLR9 (setting [2]) and against human TLR7 (setting [3]) were 60.5 nM, 40000 nM and 4.8 nM, respectively.

As for `CCc1c(-c2ccnc(C)c2)[nH]c2ccc(C3CCN(C(=O)C4CCN(C)CC4)CC3)cc12` [Example 593, (4-(3-ethyl-2-(2-methylpyridin-4-yl)-1H-indol-5-yl)piperidin-1-yl)(1-methylpiperidin-4-yl)methanone], the IC50 was determined as 17.4 nM on human TLR8 (setting [1]), 513 nM at human TLR9 (setting [2]) and 43 nM at human TLR7 (setting [3]).

For `Cc1cc(-c2[nH]c3ccc(C4CCN(CC(=O)N[C@H](C)C(F)(F)F)CC4)cc3c2C(C)C)cc(C)n1` [Example 252, (R)-2-(4-(2-(2,6-dimethylpyridin-4-yl)-3-isopropyl-1H-indol-5-yl)piperidin-1-yl)-N-(1,1,1-trifluoropropan-2-yl)acetamide], the figures for the IC50 on human TLR8 (setting [1]), on human TLR9 (setting [2]) and against human TLR7 (setting [3]) were 24.4 nM, 1810 nM and 8.3 nM, respectively.
